Reference: US9233161B2, “Compositions and methods for the treatment of neurological conditions” (CELLIX BIO PRIVATE LIMITED, priority 2012, dated 2016)

Tested on: Rat Model of Neuropathic Pain
Test: Mechanic pain test (Randall-Sellitio method) in a rat model of neuropathic pain (loose ligation of the right sciatic nerve)
Assay type: in vivo
Conditions: i.p., 40, 60 mg/kg equivalent of milnacipran, 15 days after surgery, tested for 2 h every 30 min, compared with milnacipran
Description: The Effect of Milnacipran and Formula I (1-1) on Nociception in a Rat Model of Neuropathic Pain
After the preoperative pain thresholds of rats determined by mechanic pain test (Randall-Sellitio method), peripheric neuropathy was formed by loose ligating the right sciatic nevre. An identical procedure was performed without ligating on the left side (sham-operation). 15 days after surgical procedure postoperative pain thresholds were determined and saline and drugs were administered via intraperitoneal (i.p) route. Drugs groups were planned as milnacipran (40, 60, 80 mg/kg), Formula I (1-1) (20, 40, 60 mg/kg equivalent of milnacipran), After saline and drug injection, the test was repeated for 2 h in every 30 min. Pain thresholds were given as mean, SEM from % values. Spontaneous locomotor activity was measured by an activity cage and movements were quantified as the total of ambulatory and stereotypic behaviour. Statistical evaluation was made with one way variance analysis (ANOVA) followed by LSD test.

CCN(CC)C(=O)[C@]1(c2ccccc2)CC1CNC(=O)CCCC[C@]1(C)CCSS1 (stereo partly shown) [Formula I (1-1)]
antinociceptive effect (pain thresholds): more potent antinociceptive effect
